Measurements as given in patent US11053248B2, “[1,2,4]triazolo[1,5-a]pyrimidine compounds as PDE2 inhibitors” (Janssen Pharmaceutica NV, priority 2016, dated 2021).

Tests used:
hPDE10A2 = hPDE10A2 (Homo sapiens, UniProt Q9Y233); experiment: biochemical
mossy fiber synapse = experiment: Effect on synaptic transmission: weak HFS-induced LTP, hippocampal slices (MEA); type: cell-based, rat
Excerpt: Effect of Test Compounds on Synaptic Transmission Critical Reagents
Sucrose dissection buffer contained (in mM) sucrose (150), NaCl (40), KCl (4), NaH2PO4.H2O (0.3), MgCl.6H2O (7), NaHCO3 (26), CaCl2.2H2O (0.5), D-glucose (10), equilibrated with 95% O2 and 5% CO2 gas mixture. Artificial cerebrospinal fluid (ACSF) used during equilibration and recording contained (in mM): NaCl (124), KCl (2.7), NaH2PO4.H2O (1.25), MgSO4.7H2O (1.3), NaHCO3 (26), CaCl2.2H2O (2), D-glucose (10), Ascorbic acid (2), equilibrated with 95% O2 and 5% CO2 gas mixture. CNQX and Kynurenic acid were prepared in ACSF at a 50 μM and 1 mM concentration respectively. […] All reagents were from Sigma-Aldrich, unless otherwise indicated. […]
All data were recorded with a MEA set-up commercially available from MultiChannel Systems MCS GmbH (Reutlingen, Germany) composed of a 4-channel stimulus generator and a 60-channels amplifier head-stage connected to a 60-channels A/D card. […]
Extracellular field potential recordings. […] All data were recorded with a MEA set-up commercially available from MultiChannel Systems MCS GmbH (Reutlingen, Germany). Two adjacent electrodes of the chip were selected to stimulate the mossy fibres in the hilar region of the dentate gyrus and the fEPSP was recorded the terminal zone area of the CA3 region of the hippocampus. […]

hPDE2A = biological target: T1, hPDE2A (Homo sapiens, UniProt O00408); experiment: In vitro assay PDE2A (SPA, 3H-cGMP); type: biochemical
T1 construct: made in house; host or cells: Sf9 insect cells (baculovirus)
T1 sequence (O00408 whole entry): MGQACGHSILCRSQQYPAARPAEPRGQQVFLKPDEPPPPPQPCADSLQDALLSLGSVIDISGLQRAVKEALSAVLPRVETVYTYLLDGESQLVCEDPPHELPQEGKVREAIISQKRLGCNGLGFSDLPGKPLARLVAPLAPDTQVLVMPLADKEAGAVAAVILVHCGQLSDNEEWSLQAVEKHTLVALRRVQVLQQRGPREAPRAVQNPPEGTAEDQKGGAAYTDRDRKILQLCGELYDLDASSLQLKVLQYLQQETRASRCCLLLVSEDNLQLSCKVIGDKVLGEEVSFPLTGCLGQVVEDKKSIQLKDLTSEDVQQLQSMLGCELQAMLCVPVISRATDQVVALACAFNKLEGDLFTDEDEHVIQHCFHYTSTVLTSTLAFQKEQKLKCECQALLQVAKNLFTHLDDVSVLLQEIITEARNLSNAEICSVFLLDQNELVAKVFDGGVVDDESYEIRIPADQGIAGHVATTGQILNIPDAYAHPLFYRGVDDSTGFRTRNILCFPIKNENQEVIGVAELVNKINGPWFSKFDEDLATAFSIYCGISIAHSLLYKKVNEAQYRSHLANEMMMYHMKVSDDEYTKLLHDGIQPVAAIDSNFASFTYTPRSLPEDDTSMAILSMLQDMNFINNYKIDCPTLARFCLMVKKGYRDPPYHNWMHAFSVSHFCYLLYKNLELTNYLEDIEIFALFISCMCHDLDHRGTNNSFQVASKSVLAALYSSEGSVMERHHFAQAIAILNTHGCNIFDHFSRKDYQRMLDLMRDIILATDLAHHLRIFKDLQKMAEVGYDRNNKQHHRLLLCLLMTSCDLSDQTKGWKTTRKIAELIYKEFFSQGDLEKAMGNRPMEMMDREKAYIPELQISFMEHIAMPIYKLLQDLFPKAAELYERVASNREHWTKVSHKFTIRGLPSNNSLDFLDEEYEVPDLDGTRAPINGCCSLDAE
Procedure, shortened: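 Sf9-expressed, Ni-sepharose-purified enzyme in 50 mM Tris pH 7.8, 8.3 mM MgCl2, 1.7 mM EGTA with 10 μM cGMP plus 0.01 μCi 3H-cGMP (final), 1% DMSO. Reaction 45 min at room temperature; SPA bead radioactivity counted as cpm, blanks without enzyme, controls with DMSO instead of compound.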

Solubility (as reported) = type: physicochemical; details: in words

Chain of hPDE10A2 (Q9Y233 267-1055): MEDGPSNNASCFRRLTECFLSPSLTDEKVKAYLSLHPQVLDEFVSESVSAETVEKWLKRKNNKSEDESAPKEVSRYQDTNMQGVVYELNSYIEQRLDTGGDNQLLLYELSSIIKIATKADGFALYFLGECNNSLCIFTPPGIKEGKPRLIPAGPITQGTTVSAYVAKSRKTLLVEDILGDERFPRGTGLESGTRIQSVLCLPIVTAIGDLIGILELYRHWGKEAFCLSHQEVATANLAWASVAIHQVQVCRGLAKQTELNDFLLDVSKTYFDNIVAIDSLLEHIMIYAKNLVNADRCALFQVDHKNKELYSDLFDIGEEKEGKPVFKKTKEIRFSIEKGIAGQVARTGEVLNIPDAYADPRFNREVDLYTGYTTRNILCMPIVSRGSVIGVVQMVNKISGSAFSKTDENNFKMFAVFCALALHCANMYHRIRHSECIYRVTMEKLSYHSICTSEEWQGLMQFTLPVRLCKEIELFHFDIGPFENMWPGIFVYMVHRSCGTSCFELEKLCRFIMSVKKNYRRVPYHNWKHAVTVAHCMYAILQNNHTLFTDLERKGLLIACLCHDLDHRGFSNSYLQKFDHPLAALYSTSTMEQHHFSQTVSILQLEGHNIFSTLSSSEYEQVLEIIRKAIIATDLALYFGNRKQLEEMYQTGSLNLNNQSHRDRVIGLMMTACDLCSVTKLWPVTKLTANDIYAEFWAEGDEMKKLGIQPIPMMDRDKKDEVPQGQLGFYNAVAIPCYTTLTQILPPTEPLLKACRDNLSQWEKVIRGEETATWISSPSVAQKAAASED

`C[C@@H]1CCN(c2nccc3ccc(Br)cc23)C[C@H]1c1cc(C(F)F)nc2ncnn12` [Compound 1] gave an IC50 (hPDE10A2; 60 nM cAMP substrate, read-out: hPDE10A2 pIC50 (converted)) of 550 nM, an Emax (hPDE10A2; read-out: hPDE10A2 Emax) of 98% and a melting point of 129.91 °C. The “penetration to the tissue” value (mossy fiber synapse; hippocampal slice, reported, in words) was “poor”, the “effect on weak HFS-induction of long term potentiation (LTP)” value (mossy fiber synapse; mossy fiber synapse, hippocampal slices of male Sprague-Dawley rats, FIG. 1) was “did not facilitate the induction of LTP” and the IC50 (hPDE2A; 10 μM cGMP substrate, read-out: hPDE2A pIC50 (converted)) was 2.24 nM. The Emax (hPDE2A; read-out: hPDE2A Emax) was 96% and the solubility (Solubility (as reported)) was “poor”.
